Counter-ions that a name gives are not always drawn.
Columns and labels:
Assay type in all cases: in vivo
Geranium dissectum = test: Pre-emergence herbicidal action, pot trial/greenhouse (Example 5.3, Table 6); details: 672 h, read-out: Herbicidal action [%] against Geranium dissectum; for pest or weed control at 50 g/ha: 50 g of AS/ha
Source text: (§1) Seeds or rhizome pieces of monocotyledonous and dicotyledonous harmful plants are placed in sandy loam in pots and covered with soil. The compositions, formulated as concentrated aqueous solutions, wettable powders or emulsion concentrates, are then applied to the surface of the covering soil as an aqueous solution, suspension or emulsion at an application rate of 300 to 800I of water/ha (converted) in a variety of dosages. After the treatment, the pots are placed in a green-house and kept under good growth conditions for the weeds. Visual scoring of plant or emergence damage is carried out after the test plants have emerged after an experimental period of 3 to 4 weeks in comparison with untreated controls.
(§2) The herbicidal efficacy of the active compounds or active compound mixtures was scored visually by comparing the treated pots (soil) with untreated controls. The damage and development of all above-ground plant parts was recorded. Scoring was done on a percentage scale (example values: 100% action=all plants dead or not emerged; 50% action=50% of the plants and green plant parts dead or not emerged; 0% action=no discernible action=like control plot). The score figures of in any case 2 repetitions (pots) were averaged.
(§3) When the data observed already exceed the formal total of the data in the experiments with individual applications, they likewise exceed the expected value according to Colby, which is calculated using the formula below and is likewise regarded as an indication of synergism (cf. S. R. Colby; in Weeds 15 (1967) pp. 20 to 22): E=A+B−(A·B/100)
(§4) In this formula: • A=action of active compound (A) in % at an application rate of a g of AS/ha; • B=action of active compound (B) in % at an application rate of b g of AS/ha; • E=expected value of the action of the combination (A)+(B) in % at the combined application rate a+b g of AS/ha.
(§5) The following abbreviations are used in the description and the tables below: • g of AS/ha=grams of active substance (=100% active compound) per hectare; • the total of the activities of the individual applications is given as E^A; • the expected values according to Colby are in each case given as E^C; Example 5.1
(§6) Certain combinations were tested for their herbicidal activity in accordance with the general example 1 (pre-emergence method).

Ipomoea hederifolia = test: Pre-emergence herbicidal action, pot trials/greenhouse (Example 5.1, Table 4); details: evaluation 27 days after treatment
Source text: as §1, §2, §3, §4, §5, §6

Erodium cicutarium = test: Pre-emergence herbicidal action, pot trials/greenhouse (Example 5.2, Table 5); details: evaluation 28 days after treatment
Source text: as §1, §2, §3, §4, §5, §6

[1] = pot trial/greenhouse, evaluation 28 days after treatment

## CCOC1Oc2ccc(OS(C)(=O)=O)cc2C1(C)C (racemic) [(B2.5), (RS)—O-(2-ethoxy-2,3-dihydro-3,3-dimethylbenzofuran-5-yl)methanesulfonate]
Geranium dissectum; 300 g of AS/ha, pot trial/greenhouse, evaluation 28 days after treatment
  pest or weed control at 300 g/ha: 35%

## Cc1ccc2c(c1)[C@H](Nc1nc(N)nc([C@@H](C)F)n1)[C@@H](C)C2 [(A21), 2-amino-4-[(1R,2S)-2,6-dimethyl-indan-1-ylamino]-6-[(1R)-1-fluoroethyl]-1,3,5-triazine]
Ipomoea hederifolia; 0.2 g of AS/ha
  Herbicidal action [%] against Ipomoea hederifolia: 0%
Ipomoea hederifolia; 0.5 g of AS/ha
  Herbicidal action [%] against Ipomoea hederifolia: 45%
Erodium cicutarium; 0.2 g of AS/ha
  Herbicidal action [%] against Erodium cicutarium: 0%
Erodium cicutarium; 0.8 g of AS/ha
  Herbicidal action [%] against Erodium cicutarium: 25%
Geranium dissectum; 0.3 g of AS/ha, pot trial/greenhouse, evaluation 28 days after treatment
  pest or weed control at 0.3 g/ha: 5%
Geranium dissectum; 1.2 g of AS/ha, pot trial/greenhouse, evaluation 28 days after treatment
  pest or weed control at 1.2 g/ha: 20%

## COC(=O)c1csc(C)c1S(=O)(=O)NC(=O)n1nc(OC)n(C)c1=O [(B1.1.2), methyl 4-[(4,5-dihydro-3-methoxy-4-methyl-5-oxo-1H-1,2,4-triazol-1-yl)carbonylsulfamoyl]-5-methylthiophene-3-carboxylate]
Ipomoea hederifolia; 0.5 g of AS/ha
  Herbicidal action [%] against Ipomoea hederifolia: 5%
Ipomoea hederifolia; 2.0 g of AS/ha
  Herbicidal action [%] against Ipomoea hederifolia: 50%

## CS(=O)(=O)c1ccc(C(=O)C2C(=O)CCCC2=O)c(Cl)c1COCC(F)(F)F [(B1.2.1), 2-{2-chloro-4-mesyl-3-[(2,2,2-trifluoroethoxy)methyl]benzoyl}cyclohexane-1,3-dione]
Erodium cicutarium; 50 g of AS/ha
  Herbicidal action [%] against Erodium cicutarium: 30%

## CCOC(=O)COc1ncccc1Oc1cc(-n2c(=O)cc(C(F)(F)F)n(C)c2=O)c(F)cc1Cl [(B1.3), ethyl [[3-[2-chloro-5-[3,6-dihydro-3-methyl-2,6-dioxo-4-(trifluoromethyl)-1(2H)-pyrimidinyl]-4-fluorophenoxy]-2-pyridinyl]oxy]acetate]
Erodium cicutarium; 15 g of AS/ha
  Herbicidal action [%] against Erodium cicutarium: 65%

## COc1cc(OC)n2nc(NS(=O)(=O)c3c(C(F)(F)F)ccnc3OC)nc2n1 [(B1.4.1), N-(5,7-dimethoxy[1,2,4]triazolo[1,5-a]pyrimidin-2-yl)-2-methoxy-4-(trifluoromethyl)pyridine-3-sulfonamide]
Erodium cicutarium; 5 g of AS/ha
  Herbicidal action [%] against Erodium cicutarium: 50%

## COCCOCc1nc(C(F)(F)F)ccc1C(=O)C1=C(O)C2CCC(C2)C1=O (stereo not shown) [(B1.6.1), 4-hydroxy-3-[[2-[(2-methoxyethoxy)methyl]-6-trifluoromethyl-3-pyridinyl]carbonyl]-bicyclo[3.2.1]oct-3-en-2-one]
Erodium cicutarium; 30 g of AS/ha
  Herbicidal action [%] against Erodium cicutarium: 55%

## Cc1nn(C)c(O)c1C(=O)c1ccc(C(F)(F)F)cc1S(C)(=O)=O [(B2.1.1), (5-hydroxy-1,3-dimethyl-1H-pyrazol-4-yl)-[2-(methylsulfonyl)-4-(trifluoromethyl)-phenyl]methanone]
Geranium dissectum; 30 g of AS/ha, pot trial/greenhouse, evaluation 28 days after treatment
  pest or weed control at 30 g/ha: 20%

## COc1cc(OC)nc(NC(=O)NS(=O)(=O)c2ncccc2OCC(F)(F)F)n1 [(B2.2.2), 1-(4,6-dimethoxypyrimidin-2-yl)-3-[3-(2,2,2-trifluoroethoxy)-2-pyridylsulfonyl]urea sodium salt]
Geranium dissectum
  pest or weed control at 25 g/ha: 45%

## CC(C)N(C)S(=O)(=O)NC(=O)c1cc(-n2c(=O)cc(C(F)(F)F)n(C)c2=O)c(F)cc1Cl [(B2.3.1), 2-chloro-5-[3,6-dihydro-3-methyl-2,6-dioxo-4-(trifluoromethyl)-1 (2H)-pyrimidinyl]-4-fluoro-N-[[methyl(1-methylethyl)amino]sulfonyl]benzamide]
Geranium dissectum; [1]
  pest or weed control at 50 g/ha: 65%

## Nc1cc(Cl)nc(C(=O)O)c1Cl [(B2.4.1), 4-amino-3,6-dichloropyridine-2-carboxylic acid]
Geranium dissectum; 75 g of AS/ha, pot trial/greenhouse, evaluation 28 days after treatment
  pest or weed control at 75 g/ha: 50%

## Nc1nc(C2CC2)nc(C(=O)O)c1Cl [(B2.6.1), 6-amino-5-chloro-2-cyclopropylpyrimidine-4-carboxylic acid]
Geranium dissectum; 100 g of AS/ha, pot trial/greenhouse, evaluation 28 days after treatment
  pest or weed control at 100 g/ha: 65%

## Cn1nc(C(F)(F)F)c(CS(=O)(=O)C2=NOC(C)(C)C2)c1OC(F)F [(B3.1), 3-[5-(difluoromethoxy)-1-methyl-3-(trifluoromethyl)pyrazol-4-ylmethylsulfonyl]-4,5-dihydro-5,5-dimethyl-1,2-oxazole]
Geranium dissectum; [1]
  pest or weed control at 50 g/ha: 50%

— patent USRE46095E1, “Herbicidal compositions” (BAYER CROPSCIENCE AG, priority 2008, dated 2016)
